Laboratory results published in publication PMC4490944 (Journal of immunology (Baltimore, Md. : 1950), 2015).

Assays:
[1] = test system: MHC II; conditions: as previously reported; cited from earlier work
[2] = biological target: HLA-DR1 (DR1) (DRA*0101/DRB1*010101) (Homo sapiens, UniProt P01903+P01911, A100R/D57E/F55L/F60I/F76Y/I96L/L162R/M171V/P40L/Q125E/R42F/V115G/Y59C); experiment: Numerical modeling; format: binding; conditions: Scheme V

Ac-PRFVKQNTLRLAT [HA]
intrinsic and DM-catalyzed dissociation half-life [1]: ~ 100 hours | k-3 (values that could produce the same fits) ([2]; bound for same fit): less than 1×10^−4 | k-6 (values that could produce the same fits) ([2]; bound for same fit): less than 1×10^−4 | k-7 (values that could produce the same fits) ([2]; bound for same fit): less than 1×10^−4 | k5 ([2]; best fit value, DM-MHC resolves into inactive MHC II in the absence of peptides, kept the same for HA and CLIP, 0.4 μM DR1, 0.4 μM DM): 0.36 min⁻¹
